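Test compounds were applied to cells in 96-well plates for 48 hours at 5 doses. TGI marks complete inhibition of growth.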
What was measured:
Experiment in all cases: NCI anticancer screen, dose series, 48 h
NCI-H226 lung = test system: NCI-H226 lung
SF-539 CNS = test system: SF-539 CNS
HL-60(TB) leukemia = test system: HL-60(TB) leukemia
CAKI-1 renal = test system: CAKI-1 renal
EKVX NSCLC = test system: EKVX NSCLC
LOX IMVI melanoma = test system: LOX IMVI melanoma
SK-MEL-28 melanoma = test system: SK-MEL-28 melanoma
DLD-1 colon = test system: DLD-1 colon
SR leukemia = test system: SR leukemia
MOLT-4 leukemia = test system: MOLT-4 leukemia
K-562 leukemia = test system: K-562 leukemia
DMS 273 small cell lung = test system: DMS 273 small cell lung
HCT-15 colon = test system: HCT-15 colon
HOP-62 NSCLC = test system: HOP-62 NSCLC
CCRF-CEM leukemia = test system: CCRF-CEM leukemia
UACC-62 melanoma = test system: UACC-62 melanoma
HOP-92 NSCLC = test system: HOP-92 NSCLC
SK-MEL-2 melanoma = test system: SK-MEL-2 melanoma
SNB-19 CNS = test system: SNB-19 CNS
SF-268 CNS = test system: SF-268 CNS
786-0 renal = test system: 786-0 renal
M19-MEL melanoma = test system: M19-MEL melanoma
HCC-2998 colon = test system: HCC-2998 colon
ACHN renal = test system: ACHN renal
KM12 colon = test system: KM12 colon
U251 CNS = test system: U251 CNS
SK-OV-3 ovarian = test system: SK-OV-3 ovarian
KM20L2 colon = test system: KM20L2 colon
OVCAR-4 ovarian = test system: OVCAR-4 ovarian
DMS 114 small cell lung = test system: DMS 114 small cell lung
SK-MEL-5 melanoma = test system: SK-MEL-5 melanoma
MALME-3M melanoma = test system: MALME-3M melanoma
OVCAR-8 ovarian = test system: OVCAR-8 ovarian
IGROV1 ovarian = test system: IGROV1 ovarian
NCI-H522 lung = test system: NCI-H522 lung
OVCAR-5 ovarian = test system: OVCAR-5 ovarian
RXF 393 renal = test system: RXF 393 renal
SW-620 colon = test system: SW-620 colon
M14 melanoma = test system: M14 melanoma
UACC-257 melanoma = test system: UACC-257 melanoma
NCI-H23 lung = test system: NCI-H23 lung
HOP-18 NSCLC = test system: HOP-18 NSCLC
LXFL 529 NSCLC = test system: LXFL 529 NSCLC
SNB-78 CNS = test system: SNB-78 CNS
TK-10 renal = test system: TK-10 renal
OVCAR-3 ovarian = test system: OVCAR-3 ovarian
NCI-H460 lung = test system: NCI-H460 lung
RXF-631 renal = test system: RXF-631 renal
COLO 205 colon = test system: COLO 205 colon
SF-295 CNS = test system: SF-295 CNS
A498 renal = test system: A498 renal
SN12C renal = test system: SN12C renal
SNB-75 CNS = test system: SNB-75 CNS
HCT-116 colon = test system: HCT-116 colon
UO-31 renal = test system: UO-31 renal
HT29 colon = test system: HT29 colon
A549 NSCLC = test system: A549 NSCLC
RPMI-8226 leukemia = test system: RPMI-8226 leukemia

COc1ccc(NC(=O)C(=O)NO)c(OC)c1
TGI (NCI-H226 lung): 41.6 µM
TGI (SF-539 CNS): 36.3 µM
TGI (HL-60(TB) leukemia): 43 µM
TGI (CAKI-1 renal): 27.3 µM
TGI (EKVX NSCLC): 28.7 µM
TGI (LOX IMVI melanoma): 27.2 µM
TGI (SK-MEL-28 melanoma): 33.1 µM
TGI (DLD-1 colon): 41 µM
TGI (SR leukemia): 25.9 µM
TGI (MOLT-4 leukemia): 35.2 µM
TGI (K-562 leukemia): 56.4 µM
TGI (DMS 273 small cell lung): 35.3 µM
TGI (HCT-15 colon): 31.2 µM
TGI (HOP-62 NSCLC): 35.1 µM
TGI (CCRF-CEM leukemia): 98 µM
TGI (UACC-62 melanoma): 28.9 µM
TGI (HOP-92 NSCLC): 35.7 µM
TGI (SK-MEL-2 melanoma): 30.9 µM
TGI (SNB-19 CNS): 28.2 µM
TGI (SF-268 CNS): 32.1 µM
TGI (786-0 renal): 29.6 µM
TGI (M19-MEL melanoma): 38.9 µM
TGI (HCC-2998 colon): 35.8 µM
TGI (ACHN renal): 29.3 µM
TGI (KM12 colon): 34.2 µM
TGI (U251 CNS): 30.5 µM
TGI (SK-OV-3 ovarian): 33.7 µM
TGI (KM20L2 colon): 33.3 µM
TGI (OVCAR-4 ovarian): 37.7 µM
TGI (DMS 114 small cell lung): 29 µM
TGI (SK-MEL-5 melanoma): 32.5 µM
TGI (MALME-3M melanoma): 54.6 µM
TGI (OVCAR-8 ovarian): 33.3 µM
TGI (IGROV1 ovarian): 32 µM
TGI (NCI-H522 lung): 19 µM
TGI (OVCAR-5 ovarian): 33.6 µM
TGI (RXF 393 renal): 29.2 µM
TGI (SW-620 colon): 34.5 µM
TGI (M14 melanoma): 29.9 µM
TGI (UACC-257 melanoma): 38 µM
TGI (NCI-H23 lung): 34.1 µM
TGI (HOP-18 NSCLC): 31.1 µM
TGI (LXFL 529 NSCLC): 30.3 µM
TGI (SNB-78 CNS): 44.1 µM
TGI (TK-10 renal): 37.1 µM
TGI (OVCAR-3 ovarian): 30.3 µM
TGI (NCI-H460 lung): 33.4 µM
TGI (RXF-631 renal): 57 µM
TGI (COLO 205 colon): 37.7 µM
TGI (SF-295 CNS): 27 µM
TGI (A498 renal): 39 µM
TGI (SN12C renal): 39.6 µM
TGI (SNB-75 CNS): 35.3 µM
TGI (HCT-116 colon): 32.4 µM
TGI (UO-31 renal): 29.8 µM
TGI (HT29 colon): 38.1 µM
TGI (A549 NSCLC): 35.4 µM
TGI (RPMI-8226 leukemia): 49.1 µM

COc1cc(C(=O)C(CO)Oc2ccccc2OC)ccc1O (configuration not stated)
TGI (NCI-H226 lung): > 100 µM
TGI (SF-539 CNS): > 100 µM
TGI (HL-60(TB) leukemia): > 100 µM
TGI (CAKI-1 renal): > 100 µM
TGI (EKVX NSCLC): > 100 µM
TGI (SK-MEL-28 melanoma): > 100 µM
TGI (DLD-1 colon): > 100 µM
TGI (SR leukemia): > 100 µM
TGI (MOLT-4 leukemia): > 100 µM
TGI (K-562 leukemia): > 100 µM
TGI (DMS 273 small cell lung): > 100 µM
TGI (HCT-15 colon): > 100 µM
TGI (HOP-62 NSCLC): > 100 µM
TGI (CCRF-CEM leukemia): > 100 µM
TGI (UACC-62 melanoma): > 100 µM
TGI (HOP-92 NSCLC): > 100 µM
TGI (SNB-19 CNS): > 100 µM
TGI (SF-268 CNS): > 100 µM
TGI (786-0 renal): > 100 µM
TGI (M19-MEL melanoma): > 100 µM
TGI (HCC-2998 colon): > 100 µM
TGI (ACHN renal): > 100 µM
TGI (KM12 colon): > 100 µM
TGI (U251 CNS): > 100 µM
TGI (SK-OV-3 ovarian): > 100 µM
TGI (KM20L2 colon): > 100 µM
TGI (OVCAR-4 ovarian): > 100 µM
TGI (DMS 114 small cell lung): > 100 µM
TGI (SK-MEL-5 melanoma): > 100 µM
TGI (MALME-3M melanoma): > 100 µM
TGI (OVCAR-8 ovarian): > 100 µM
TGI (IGROV1 ovarian): > 100 µM
TGI (NCI-H522 lung): > 100 µM
TGI (OVCAR-5 ovarian): > 100 µM
TGI (SW-620 colon): > 100 µM
TGI (M14 melanoma): > 100 µM
TGI (UACC-257 melanoma): > 100 µM
TGI (NCI-H23 lung): > 100 µM
TGI (HOP-18 NSCLC): > 100 µM
TGI (LXFL 529 NSCLC): > 100 µM
TGI (SNB-78 CNS): > 100 µM
TGI (TK-10 renal): > 100 µM
TGI (OVCAR-3 ovarian): > 100 µM
TGI (NCI-H460 lung): > 100 µM
TGI (RXF-631 renal): > 100 µM
TGI (COLO 205 colon): > 100 µM
TGI (SF-295 CNS): > 100 µM
TGI (SN12C renal): > 100 µM
TGI (SNB-75 CNS): > 100 µM
TGI (HCT-116 colon): > 100 µM
TGI (UO-31 renal): > 100 µM
TGI (HT29 colon): > 100 µM
TGI (A549 NSCLC): > 100 µM

CC12OC3(O)C4C5CC(C6C5C3C61)C42 (configuration not stated)
TGI (NCI-H226 lung): > 100 µM
TGI (SF-539 CNS): > 100 µM
TGI (HL-60(TB) leukemia): > 100 µM
TGI (CAKI-1 renal): > 100 µM
TGI (SK-MEL-28 melanoma): > 100 µM
TGI (DLD-1 colon): > 100 µM
TGI (SR leukemia): > 100 µM
TGI (MOLT-4 leukemia): > 100 µM
TGI (K-562 leukemia): > 100 µM
TGI (DMS 273 small cell lung): > 100 µM
TGI (HCT-15 colon): > 100 µM
TGI (HOP-62 NSCLC): > 100 µM
TGI (CCRF-CEM leukemia): > 100 µM
TGI (UACC-62 melanoma): > 100 µM
TGI (SK-MEL-2 melanoma): > 100 µM
TGI (SNB-19 CNS): > 100 µM
TGI (SF-268 CNS): > 100 µM
TGI (786-0 renal): > 100 µM
TGI (M19-MEL melanoma): > 100 µM
TGI (HCC-2998 colon): > 100 µM
TGI (ACHN renal): > 100 µM
TGI (KM12 colon): > 100 µM
TGI (U251 CNS): > 100 µM
TGI (SK-OV-3 ovarian): > 100 µM
TGI (KM20L2 colon): > 100 µM
TGI (OVCAR-4 ovarian): > 100 µM
TGI (DMS 114 small cell lung): > 100 µM
TGI (MALME-3M melanoma): > 100 µM
TGI (OVCAR-8 ovarian): > 100 µM
TGI (NCI-H522 lung): > 100 µM
TGI (RXF 393 renal): > 100 µM
TGI (SW-620 colon): > 100 µM
TGI (M14 melanoma): > 100 µM
TGI (UACC-257 melanoma): > 100 µM
TGI (HOP-18 NSCLC): > 100 µM
TGI (LXFL 529 NSCLC): 53.1 µM
TGI (SNB-78 CNS): > 100 µM
TGI (TK-10 renal): > 100 µM
TGI (RXF-631 renal): > 100 µM
TGI (COLO 205 colon): > 100 µM
TGI (SN12C renal): > 100 µM
TGI (SNB-75 CNS): > 100 µM
TGI (HCT-116 colon): > 100 µM
TGI (UO-31 renal): > 100 µM
TGI (A549 NSCLC): > 100 µM
TGI (RPMI-8226 leukemia): > 100 µM
